Reference: the supplement of paper PMC10307832

What was measured:
Experiment in all cases: relative viability (nuclei count vs DMSO), 5 days (fraction); higher = more cells survive
Shikonin + Tozasertib = compound: CC(C)=CC[C@@H](O)C1=CC(=O)c2c(O)ccc(O)c2C1=O [Shikonin] + Cc1cc(Nc2cc(N3CCN(C)CC3)nc(Sc3ccc(NC(=O)C4CC4)cc3)n2)n[nH]1 [Tozasertib] (partner 0.1 µM)
Summary of the method: (§1)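 Lung cancer cell lines were pin-tool dosed in 1536-well plates on the day after seeding, with either a lone drug or a fixed anchor-drug dose plus five library-drug doses (not always all listed) in √10 steps. Nuclei were counted on 4× images after 5 days. Relative viability is the ratio of treated-well to vehicle-well nuclei counts, with each value a median of duplicate plates.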

[1] = compound: CC(C)N(CCCNC(=O)Nc1ccc(C(C)(C)C)cc1)C[C@H]1O[C@@H](n2ccc3c(N)ncnc32)[C@H](O)[C@@H]1O + CC1(C)CCC(c2ccc(Cl)cc2)=C(CN2CCN(c3ccc(C(=O)NS(=O)(=O)c4ccc(N[C@H](CCN5CCOCC5)CSc5ccccc5)c(S(=O)(=O)C(F)(F)F)c4)cc3)CC2)C1 [Navitoclax] (partner 0.5 µM)
Summary of the method: as §1

[2] = compound: CC(C)N(CCCNC(=O)Nc1ccc(C(C)(C)C)cc1)C[C@H]1O[C@@H](n2ccc3c(N)ncnc32)[C@H](O)[C@@H]1O + C[C@@H](Oc1cc(-c2cnn(C3CCNCC3)c2)cnc1N)c1c(Cl)ccc(F)c1Cl [Crizotinib] (partner 1 µM)
Summary of the method: as §1

[3] = compound: CC(C)N(CCCNC(=O)Nc1ccc(C(C)(C)C)cc1)C[C@H]1O[C@@H](n2ccc3c(N)ncnc32)[C@H](O)[C@@H]1O + Nc1nc2[nH]cc(CCc3ccc(C(=O)N[C@@H](CCC(=O)O)C(=O)O)cc3)c2c(=O)[nH]1 [Pemetrexed] (partner 0.2 µM)
Summary of the method: as §1

## CAL-12T
Shikonin + Tozasertib; first compound 0.01 µM
  relative viability: 0.322
Shikonin + Tozasertib; first compound 0.1 µM
  relative viability: 0.294
Shikonin + Tozasertib; first compound 0.3162 µM
  relative viability: 0.325
Shikonin + Tozasertib; first compound 1 µM
  relative viability: 0.432
[1]; first compound 0.08 µM
  relative viability: 1.14
[1]; first compound 0.253 µM
  relative viability: 1.27
[1]; first compound 0.8 µM
  relative viability: 1.19
[1]; first compound 2.53 µM
  relative viability: 1.19
[1]; first compound 8 µM
  relative viability: 1.19
[2]; first compound 0.08 µM
  relative viability: 0.626
[2]; first compound 0.253 µM
  relative viability: 0.548
[2]; first compound 0.8 µM
  relative viability: 0.63
[2]; first compound 2.53 µM
  relative viability: 0.563
[2]; first compound 8 µM
  relative viability: 0.529
[3]; first compound 0.08 µM
  relative viability: 1.21
[3]; first compound 0.253 µM
  relative viability: 1.16
[3]; first compound 0.8 µM
  relative viability: 1.1
[3]; first compound 2.53 µM
  relative viability: 0.983
[3]; first compound 8 µM
  relative viability: 1.05

## NCI-H647
Shikonin + Tozasertib; first compound 0.01 µM
  relative viability: 0.407
Shikonin + Tozasertib; first compound 0.1 µM
  relative viability: 0.323
Shikonin + Tozasertib; first compound 0.3162 µM
  relative viability: 0.247
Shikonin + Tozasertib; first compound 1 µM
  relative viability: 0.193
[1]; first compound 0.08 µM
  relative viability: 0.894
[1]; first compound 0.8 µM
  relative viability: 1.07
[1]; first compound 2.53 µM
  relative viability: 1.06
[1]; first compound 8 µM
  relative viability: 1.05
[2]; first compound 0.08 µM
  relative viability: 1.01
[2]; first compound 0.8 µM
  relative viability: 1.05
[2]; first compound 2.53 µM
  relative viability: 1.15
[2]; first compound 8 µM
  relative viability: 0.953
[3]; first compound 0.08 µM
  relative viability: 0.197
[3]; first compound 0.253 µM
  relative viability: 0.164
[3]; first compound 0.8 µM
  relative viability: 0.143
[3]; first compound 2.53 µM
  relative viability: 0.194
[3]; first compound 8 µM
  relative viability: 0.176

## NCI-H1755
Shikonin + Tozasertib; first compound 0.01 µM
  relative viability: 0.578
Shikonin + Tozasertib; first compound 0.1 µM
  relative viability: 0.521
Shikonin + Tozasertib; first compound 0.3162 µM
  relative viability: 0.506
Shikonin + Tozasertib; first compound 1 µM
  relative viability: 0.532
[1]; first compound 0.08 µM
  relative viability: 0.986
[1]; first compound 0.253 µM
  relative viability: 0.99
[1]; first compound 0.8 µM
  relative viability: 0.923
[1]; first compound 2.53 µM
  relative viability: 0.958
[1]; first compound 8 µM
  relative viability: 0.914
[2]; first compound 0.08 µM
  relative viability: 0.841
[2]; first compound 0.253 µM
  relative viability: 0.9
[2]; first compound 0.8 µM
  relative viability: 0.889
[2]; first compound 2.53 µM
  relative viability: 0.832
[2]; first compound 8 µM
  relative viability: 0.73
[3]; first compound 0.08 µM
  relative viability: 0.391
[3]; first compound 0.253 µM
  relative viability: 0.447
[3]; first compound 0.8 µM
  relative viability: 0.387
[3]; first compound 2.53 µM
  relative viability: 0.489
[3]; first compound 8 µM
  relative viability: 0.348

## NCI-H2085
Shikonin + Tozasertib; first compound 0.01 µM
  relative viability: 0.758
Shikonin + Tozasertib; first compound 0.1 µM
  relative viability: 0.829
Shikonin + Tozasertib; first compound 0.3162 µM
  relative viability: 0.868
Shikonin + Tozasertib; first compound 1 µM
  relative viability: 0.801
[1]; first compound 0.08 µM
  relative viability: 1.11
[1]; first compound 0.253 µM
  relative viability: 1.11
[1]; first compound 0.8 µM
  relative viability: 1.18
[1]; first compound 2.53 µM
  relative viability: 1.33
[1]; first compound 8 µM
  relative viability: 1.15
[2]; first compound 0.08 µM
  relative viability: 0.764
[2]; first compound 0.253 µM
  relative viability: 0.884
[2]; first compound 0.8 µM
  relative viability: 0.99
[2]; first compound 2.53 µM
  relative viability: 0.836
[2]; first compound 8 µM
  relative viability: 0.785
[3]; first compound 0.08 µM
  relative viability: 0.877
[3]; first compound 0.253 µM
  relative viability: 0.61
[3]; first compound 0.8 µM
  relative viability: 0.899
[3]; first compound 2.53 µM
  relative viability: 1.05
[3]; first compound 8 µM
  relative viability: 0.975

## NCI-H2023
Shikonin + Tozasertib; first compound 0.01 µM
  relative viability: 0.477
Shikonin + Tozasertib; first compound 0.1 µM
  relative viability: 0.453
Shikonin + Tozasertib; first compound 0.3162 µM
  relative viability: 0.383
Shikonin + Tozasertib; first compound 1 µM
  relative viability: 0.412
[1]; first compound 0.08 µM
  relative viability: 0.989
[1]; first compound 0.253 µM
  relative viability: 1.05
[1]; first compound 0.8 µM
  relative viability: 1.01
[1]; first compound 2.53 µM
  relative viability: 1.05
[1]; first compound 8 µM
  relative viability: 0.988
[2]; first compound 0.08 µM
  relative viability: 0.753
[2]; first compound 0.253 µM
  relative viability: 0.733
[2]; first compound 0.8 µM
  relative viability: 0.859
[2]; first compound 2.53 µM
  relative viability: 0.755
[2]; first compound 8 µM
  relative viability: 0.751
[3]; first compound 0.08 µM
  relative viability: 0.246
[3]; first compound 0.253 µM
  relative viability: 0.246
[3]; first compound 0.8 µM
  relative viability: 0.232
[3]; first compound 2.53 µM
  relative viability: 0.215
[3]; first compound 8 µM
  relative viability: 0.213
